We go through 3 molecules from patent US20130237487A1, “CRYSTALLINE AND NON-CRYSTALLINE FORMS OF SGLT2 INHIBITORS” (SCINOPHARM TAIWAN, LTD., priority 2011, published 2013).

Data set [1] can be described thus: Dynamic vapor sorption (DVS) analysis. As to conditions: for sorption/desorption behavior between cycles: DVS isotherm plots, two sorption/desorption cycles; for hygroscopicity (moisture sorption) / physical stability of the solid form as humidity is changed: DVS; for hygroscopicity (moisture sorption): relative humidity increased from 0% to 90%; for physical stability of the solid form as humidity is changed: up to 90% RH.

Data set [2] in a line: Hydration-state stability of Form CS3 under different humidity (DSC/TGA, Karl Fischer titration). Format: physicochemical. The source says: Form CS3 has been further characterized using DSC/TGA and Karl Fischer titration. […] Dehydration, which is reversible, only occurs when the sample is exposed to a low humidity environment (e.g., less than about 10% RH). […] The DSC/TGA traces of crystalline complex Form CS3 of canagliflozin are in accordance with FIG. 17. The aforementioned physical stability characteristic of this embodiment makes the crystalline complex Form CS3 of canagliflozin a preferred solid form of canagliflozin of this invention.
(FIG. 20) is essentially the same as the XRPD pattern acquired at 25° C. (FIG. 15). Thus, from the XRPD patterns acquired at 25° C. and 100° C., it can be reasonably concluded that although Form CS3 is a monohydrate under ambient conditions (such as in an analytical chemistry laboratory), it can also exist as an anhydrate at low humidity, such as less than about 10% RH, and at temperatures higher than ambient temperature.

The mark [3] stands for this setting: laboratory environmental conditions.

Entries after “also recorded” stand apart in the source; their conditions may differ.

Consider `Cc1ccc([C@@H]2O[C@H](CO)[C@@H](O)[C@H](O)[C@H]2O)cc1Cc1ccc(-c2ccc(F)cc2)s1.O=C(O)[C@@H]1CCCN1` [Form CS1], for which, in data set [1], the “sorption/desorption behavior between cycles” value is recorded as “completely consistent between cycles”, the “hygroscopicity (moisture sorption)” value is “not hygroscopic” and the “physical stability of the solid form as humidity is changed” value is “stable in the presence or absence of moisture”.
On the same counts, the results for `Cc1ccc([C@@H]2O[C@H](CO)[C@@H](O)[C@H](O)[C@H]2O)cc1Cc1ccc(-c2ccc(F)cc2)s1` [amorphous form of canagliflozin, (2S,3R,4R,5S,6R)-2-{3-[5-[4-fluoro-phenyl)-thiophen-2-ylmethyl]-4-methyl-phenyl}-6-hydroxymethyl-tetrahydro-pyran-3,4,5-triol] are “second sorption/desorption cycle was different from the first cycle; also recorded: inconsistent between the two cycles”, “significantly hygroscopic” and “conversion or partial conversion from the amorphous state to a crystalline state; also recorded: undergoes physical change (from amorphous to crystalline)”.
Consider `Cc1ccc([C@@H]2O[C@H](CO)[C@@H](O)[C@H](O)[C@H]2O)cc1Cc1ccc(-c2ccc(F)cc2)s1` [Form CS3], for which the “physical stability (hydration state)” value in data set [2] (highly humid conditions) was “remains as a monohydrate”. In data set [2] (setting [3]), the hygroscopicity entry is recorded as “non-hygroscopic” and the “physical stability (hydration state)” value is “stable as a monohydrate”. For the same molecule, the “relative humidity at which (reversible) dehydration occurs” value in data set [2] (low humidity environment) was “less than 10 % RH”.
